Earlier results on one compound are cited in patent publication US4370313A, “Nitrofurantoin dosage form” (Eaton Laboratories, Inc., priority 1981, dated 1983).

For the compound `O=C1CN(/N=C/c2ccc([N+](=O)[O-])o2)C(=O)N1` [nitrofurantoin], the “preferred absorption in a limited segment of the human gastrointestinal tract” value is “duodenum”. For the same compound, the “expected urinary level peaks” value (immediately available dose, conventional dosage forms, human) is 2 to 3 h.
